These compounds were tested against T1, human thyroid receptor beta ligand-binding domain (THR-beta) (Homo sapiens, UniProt P10828) (assay: THR Biochemical Assay (Assay 1): TR-FRET thyroid receptor beta coactivator assay). Conditions: TR-FRET SRC2-2 coactivator recruitment, GST-tagged THR-beta LBD 1 nM, 1 hr at rt; read-out: Assay 1 (EC50, THR-beta agonist activity).
T1 sequence (P10828 217-461 limits assumed): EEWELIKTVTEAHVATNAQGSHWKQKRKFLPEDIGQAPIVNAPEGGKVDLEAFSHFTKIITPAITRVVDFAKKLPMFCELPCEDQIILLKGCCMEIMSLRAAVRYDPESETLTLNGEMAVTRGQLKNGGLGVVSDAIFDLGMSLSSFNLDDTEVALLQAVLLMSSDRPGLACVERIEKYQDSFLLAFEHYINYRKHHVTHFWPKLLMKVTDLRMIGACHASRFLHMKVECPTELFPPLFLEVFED
Description: THR Biochemical Assay (Assay 1)
The TR-FRET thyroid receptor beta coactivator assay is to be used. The assay uses a terbium-labeled anti-GST antibody, a glutathione-S-transferase (GST) tagged human thyroid receptor, beta or alpha, ligand-binding domain (LBD), and a fluorescein labeled SRC2-2 coactivator peptide. The antibody interacts with the LBD, where the agonist will also bind, resulting in increased affinity for the SRC2-2 coactivator peptide causing energy transfer of the acceptor fluorophore and a FRET emission shift from 495 to 520 nm. The energy transfer is detected as an increase in the fluorescence emission of the fluorescein acceptor, and a decrease in the fluorescence emission of the terbium donor. The assay is to be performed in a 384-well black plate in a final volume of 20 μL. Serial dilution of various test agonists will be performed in DMSO (1% final DMSO concentration) and added to the test plate. Thyroid receptor beta LBD will usually be added to the plate at a final concentration of 1 nM, followed by the mixture of the fluorescein labeled SRC2-2 coactivator peptide, and the terbium-labeled anti-GST antibody at final concentrations of 200 nM and 2 nM respectively. The assay will often be incubated for 1 hr at rt protected from light. The TR-FRET will then be measured on a Victor multilabel reader (Perkin Elmer) using an excitation wavelength of 340 nm with emission filters of 495 nm and 520 nm. The assay will be quantified by expressing a ratio (520:495) of the intensities, and the resulting activation curves; EC50 values are to be generated using a sigmoidal dose response (variable slope) equation in GraphPad™ Prism 8.0.

EC50 [nM] | SMILES
< 50 | CC1CCc2c(Oc3c(Cl)cc(-n4nc(N)c(=O)[nH]c4=O)cc3Cl)ccc(=O)n21 (single isomer, unassigned) [Example 37, 6-amino-2-(3,5-dichloro-4-((3-methyl-5-oxo-1,2,3,5-tetrahydroindolizin-8-yl)oxy)phenyl)-1,2,4-triazine-3,5(2H,4H)-dione]
50 to 250 | CC1CCc2c(Oc3c(Cl)cc(-n4nc(N)c(=O)[nH]c4=O)cc3Cl)ccc(=O)n21 (single isomer, unassigned) [Example 38, 6-amino-2-(3,5-dichloro-4-((3-methyl-5-oxo-1,2,3,5-tetrahydroindolizin-8-yl)oxy)phenyl)-1,2,4-triazine-3,5(2H,4H)-dione]
< 50 | CC(C)c1cc(Oc2c(Cl)cc(-n3nc(N)c(=O)[nH]c3=O)cc2Cl)c[nH]c1=O [Compound 1, 6-amino-2-(3,5-dichloro-4-((5-isopropyl-6-oxo-1,6-dihydropyridin-3-yl)oxy)phenyl)-1,2,4-triazine-3,5(2H,4H)-dione]
50 to 250 | CC(C)c1cc(Oc2c(Cl)cc(-n3ncc(=O)[nH]c3=O)cc2Cl)c[nH]c1=O [Compound 3, 2-(3,5-dichloro-4-((5-isopropyl-6-oxo-1,6-dihydropyridin-3-yl)oxy)phenyl)-1,2,4-triazine-3,5(2H,4H)-dione]
50 to 250 | CC(C)c1cc(Oc2c(Cl)cc(NC(=O)C(=O)O)cc2Cl)c[nH]c1=O [Compound 4, 2-((3,5-dichloro-4-((5-isopropyl-6-oxo-1,6-dihydropyridin-3-yl)oxy)phenyl)amino)-2-oxoacetic acid]
< 50 | CC(C)c1cc(Oc2c(Cl)cc(NC(=O)c3noc(=O)[nH]3)cc2Cl)c[nH]c1=O [Compound 5, N-(3,5-dichloro-4-((5-isopropyl-6-oxo-1,6-dihydropyridin-3-yl)oxy)phenyl)-5-oxo-4,5-dihydro-1,2,4-oxadiazole-3-carboxamide]
50 to 250 | CC(C)n1cc(Oc2c(Cl)cc(NC(=O)c3noc(=O)[nH]3)cc2Cl)ccc1=O [Compound 6, N-(3,5-dichloro-4-((1-isopropyl-6-oxo-1,6-dihydropyridin-3-yl)oxy)phenyl)-5-oxo-4,5-dihydro-1,2,4-oxadiazole-3-carboxamide]
< 50 | CC(C)n1cc(Oc2c(Cl)cc(-n3nc(C#N)c(=O)[nH]c3=O)cc2Cl)ccc1=O [Compound 7, 2-(3,5-dichloro-4-((1-isopropyl-6-oxo-1,6-dihydropyridin-3-yl)oxy)phenyl)-3,5-dioxo-2,3,4,5-tetrahydro-1,2,4-triazine-6-carbonitrile]
50 to 250 | CC(C)n1cc(Oc2c(Cl)cc(-n3nc(N)c(=O)[nH]c3=O)cc2Cl)ccc1=O [Compound 8, 6-amino-2-(3,5-dichloro-4-((1-isopropyl-6-oxo-1,6-dihydropyridin-3-yl)oxy)phenyl)-1,2,4-triazine-3,5(2H,4H)-dione]
50 to 250 | Cc1cc(-n2nc(N)c(=O)[nH]c2=O)cc(C)c1Oc1c[nH]c(=O)c(C(C)C)c1 [Compound 9, 6-amino-2-(4-((5-isopropyl-6-oxo-1,6-dihydropyridin-3-yl)oxy)-3,5-dimethylphenyl)-1,2,4-triazine-3,5(2H,4H)-dione]
50 to 250 | CC(C)c1cc(Oc2c(Cl)cc(-c3nn(C)c(=O)[nH]c3=O)cc2Cl)c[nH]c1=O [Compound 10, 6-(3,5-dichloro-4-((5-isopropyl-6-oxo-1,6-dihydropyridin-3-yl)oxy)phenyl)-2-methyl-1,2,4-triazine-3,5(2H,4H)-dione]
250 to 1000 | CN(C)c1cc(Oc2c(Cl)cc(-n3nc(N)c(=O)[nH]c3=O)cc2Cl)c[nH]c1=O [Compound 13, 6-amino-2-(3,5-dichloro-4-((5-(dimethylamino)-6-oxo-1,6-dihydropyridin-3-yl)oxy)phenyl)-1,2,4-triazine-3,5(2H,4H)-dione]
< 50 | CC(C)c1cc(Oc2c(Cl)cc(-n3nc(N)c(=O)[nH]c3=O)cc2Cl)cn(C)c1=O [Example 14, 6-amino-2-(3,5-dichloro-4-((5-isopropyl-1-methyl-6-oxo-1,6-dihydropyridin-3-yl)oxy)phenyl)-1,2,4-triazine-3,5(2H,4H)-dione]
250 to 1000 | CC1CCc2c(Oc3c(Cl)cc(-n4nc(N)c(=O)[nH]c4=O)cc3Cl)c[nH]c(=O)c21 (stereo not drawn) [Example 15, 6-amino-2-[3,5-dichloro-4-[(7-methyl-1-oxo-2,5,6,7-tetrahydrocyclopenta[c]pyridin-4-yl)oxy]phenyl]-1,2,4-triazine-3,5-dione]
< 50 | Cc1c(Oc2c(Cl)cc(-n3nc(N)c(=O)[nH]c3=O)cc2Cl)c[nH]c(=O)c1C(C)C [Example 18, 6-amino-2-(3,5-dichloro-4-((5-isopropyl-4-methyl-6-oxo-1,6-dihydropyridin-3-yl)oxy)phenyl)-1,2,4-triazine-3,5(2H,4H)-dione]
< 50 | Cc1cc(Oc2c(Cl)cc(-n3nc(N)c(=O)[nH]c3=O)cc2Cl)cn(C(C)C)c1=O [Example 19, 6-amino-2-(3,5-dichloro-4-((1-isopropyl-5-methyl-6-oxo-1,6-dihydropyridin-3-yl)oxy)phenyl)-1,2,4-triazine-3,5(2H,4H)-dione]
50 to 250 | CC(C)n1cc(Oc2c(Cl)cc(-n3nc(N)c(=O)[nH]c3=O)cc2Cl)cc(F)c1=O [Example 22, 6-amino-2-(3,5-dichloro-4-((5-fluoro-1-isopropyl-6-oxo-1,6-dihydropyridin-3-yl)oxy)phenyl)-1,2,4-triazine-3,5(2H,4H)-dione]
50 to 250 | CC(C)n1cc(Oc2c(Cl)cc(-n3nc(N)c(=O)[nH]c3=O)cc2Cl)cc(Cl)c1=O [Example 23, 6-amino-2-(3,5-dichloro-4-((5-chloro-1-isopropyl-6-oxo-1,6-dihydropyridin-3-yl)oxy)phenyl)-1,2,4-triazine-3,5(2H,4H)-dione]
< 50 | Nc1nn(-c2cc(Cl)c(Oc3c[nH]c(=O)c(C4CCC4)c3)c(Cl)c2)c(=O)[nH]c1=O [Example 24, 6-amino-2-(3,5-dichloro-4-((5-cyclobutyl-6-oxo-1,6-dihydropyridin-3-yl)oxy)phenyl)-1,2,4-triazine-3,5(2H,4H)-dione]
250 to 1000 | Nc1nn(-c2cc(Cl)c(Oc3c[nH]c(=O)c(C(=O)NC4CC(F)(F)C4)c3)c(Cl)c2)c(=O)[nH]c1=O [Example 27, 5-(4-(6-Amino-3,5-dioxo-4,5-dihydro-1,2,4-triazin-2(3H)-yl)-2,6-dichlorophenoxy)-N-(3,3-difluorocyclobutyl)-2-oxo-1,2-dihydropyridine-3-carboxamide]
1000 to 25000 | CNC(=O)c1cc(Oc2c(Cl)cc(NC(=O)c3noc(=O)[nH]3)cc2Cl)c[nH]c1=O [Example 28, N-(3,5-dichloro-4-((5-(methylcarbamoyl)-6-oxo-1,6-dihydropyridin-3-yl)oxy)phenyl)-5-oxo-4,5-dihydro-1,2,4-oxadiazole-3-carboxamide]
< 50 | Nc1nn(-c2cc(Cl)c(Oc3ccc(=O)n(C4CCC4)c3)c(Cl)c2)c(=O)[nH]c1=O [Example 30, 6-amino-2-(3,5-dichloro-4-((1-cyclobutyl-6-oxo-1,6-dihydropyridin-3-yl)oxy)phenyl)-1,2,4-triazine-3,5(2H,4H)-dione]
50 to 250 | Nc1nn(-c2cc(Cl)c(Oc3ccc(=O)n(C4CC4)c3)c(Cl)c2)c(=O)[nH]c1=O [Example 31, 6-amino-2-(3,5-dichloro-4-((1-cyclopropyl-6-oxo-1,6-dihydropyridin-3-yl)oxy)phenyl)-1,2,4-triazine-3,5(2H,4H)-dione]
50 to 250 | CC(n1cc(Oc2c(Cl)cc(-n3nc(N)c(=O)[nH]c3=O)cc2Cl)ccc1=O)C(F)(F)F (stereo not drawn) [Example 32, 6-amino-2-(3,5-dichloro-4-((6-oxo-1-(1,1,1-trifluoropropan-2-yl)-1,6-dihydropyridin-3-yl)oxy)phenyl)-1,2,4-triazine-3,5(2H,4H)-dione]
250 to 1000 | Cc1cc(-n2nc(N)c(=O)[nH]c2=O)cc(C)c1Cc1c[nH]c(=O)c(C(C)C)c1 [Example 33, 6-amino-2-(4-((5-isopropyl-6-oxo-1,6-dihydropyridin-3-yl)methyl)-3,5-dimethylphenyl)-1,2,4-triazine-3,5(2H,4H)-dione]
250 to 1000 | CC1CCc2c(Oc3c(Cl)cc(-n4nc(C#N)c(=O)[nH]c4=O)cc3Cl)c[nH]c(=O)c21 (stereo not drawn) [Example 34, 2-(3,5-Dichloro-4-((7-methyl-1-oxo-2,5,6,7-tetrahydro-1H-cyclopenta[c]pyridin-4-yl)oxy)phenyl)-3,5-dioxo-2,3,4,5-tetrahydro-1,2,4-triazine-6-carbonitrile]
< 50 | CC1CCc2c(Oc3c(Cl)cc(-n4nc(C#N)c(=O)[nH]c4=O)cc3Cl)ccc(=O)n21 (stereo not drawn) [Example 35, 2-(3,5-dichloro-4-((3-methyl-5-oxo-1,2,3,5-tetrahydroindolizin-8-yl)oxy)phenyl)-3,5-dioxo-2,3,4,5-tetrahydro-1,2,4-triazine-6-carbonitrile]

— patent publication US11786532B2, “2-pyridones and methods of use thereof” (ALIGOS THERAPEUTICS, INC., priority 2020, dated 2023)
